pIC50: −log10 of the molar value. “And” between values parts separate entries of the source, which are not always exact repeats. Equal values may be shown once.
Each compound was assayed on P. falciparum 3D7 growth, pLDH absorbance (assay: blood-stage malaria parasite growth potency – strain 3D7, dose response (AID 2305)).
`CCN(CC)CCN1C(=O)C(O)(c2ccccc2Cl)c2c1cc(C#N)cc2C(F)(F)F` (configuration not stated) showed a pIC50 of 6.02.
For `O=C(Nc1ccc([N+](=O)[O-])cc1Br)c1cc2ccccc2nc1Cl`, the pIC50 was 6.72.
In the case of `O=S(=O)(Nc1cccc(CCN2CCCCC2CCN2CCCC2)c1)c1ccc2ccccc2c1` (configuration not stated), the pIC50 was 5.97.
`NC(N)=NN=Cc1c2ccccc2c(Cl)c2c(Cl)cccc12` showed a pIC50 of 6.06.
With `Cn1cnc(CCNC(=O)c2ccc(-c3cccc(-c4nc5ccc(F)cc5[nH]4)c3)cc2)c1` the pIC50 was 6.17.
For `Cc1onc(-c2c(Cl)cccc2Cl)c1C(=O)N1CCc2cc3nccc(N4CCN5CCC[C@H]5C4)c3cc21`, the pIC50 was 6.11.
For `O=C(Nc1ccc(-c2csc(-c3nc4ccccc4[nH]3)c2)cc1)Nc1ccc(F)c(F)c1F`, the pIC50 was 6.48.
With `Cc1c(Cl)ccc2c(C(=O)Nc3ccncc3)cc(-c3cccnc3)nc12` the pIC50 was 6.11.
In the case of `Cc1ccc2nc(C)cc(NN=Cc3ccc([N+](=O)[O-])cc3)c2c1`, the pIC50 was 6.10.
`C=C(C)CSc1nc2c(c(=O)n1CCc1ccccc1)C1(CCCC1)Cc1ccccc1-2` showed a pIC50 of 6.21.
For `COc1ccc2nccc([C@@H](O)CN3CCC(NC(=O)c4ccc(Oc5ccccc5)cc4)CC3)c2c1`, the pIC50 was 5.86.
In the case of `COc1cccc(NC(=O)NC2CCN(c3ccnc(Nc4ccc(F)cc4)n3)C2)c1` (configuration not stated), the pIC50 was 6.24.
Compound `CCCCc1cc(NCc2ccncc2)nc(Nc2ccc(OC)cc2)n1` has a pIC50 of 5.97.
`FC(F)(F)c1ccc2nc(-c3ccc(-c4ccc(CNCCN5CCNCC5)cc4)s3)[nH]c2c1` gave a pIC50 of 6.04.
`CCOC(=O)c1[nH]c(-c2ccccc2)nc1NC(=S)NC1CCCCC1` was tested, and the pIC50 was 6.08.
`COc1cccc2[nH]c(NCCCNCc3cc(Br)cc(Br)c3)nc12` gave a pIC50 of 6.02.
Compound `O=C(Nc1cccc(Cl)c1Cl)Nc1ccnc2ccccc12` has a pIC50 of 6.12.
For `Cc1cnc(NCCc2ccc(F)cc2)nc1N[C@@H](CC(C)C)C(=O)Nc1ccccc1`, the pIC50 was 6.01.
`N=C(N)c1ccc(NC(=O)c2cc(Sc3ccc(O)c(C(=O)Nc4ccc(C(=N)N)cc4)c3)ccc2O)cc1` showed a pIC50 of 6.92.
`CCN(CC)CCNc1ccnc2[nH]c3ccc(I)cc3c12` showed a pIC50 of 6.64.
`c1ccc(-c2ccc(CNCCCNc3nc4ccccc4[nH]3)cc2)cc1` showed a pIC50 of 6.11.
`O=C(Nc1ccc(CN2CCN(S(=O)(=O)c3cccc(Cl)c3)CC2)cc1)c1cccs1` was tested, and the pIC50 was 5.97.
`O=S(=O)(Nc1ccc(-c2ccc(CN3CCCC3)cc2)cc1)c1cccc2cccnc12` showed a pIC50 of 5.99.
`CCc1ccc(C2CCN(CCCCNC(=O)c3ccc(NC(=O)c4ccc(Cl)cc4)cc3)CC2)c(OCCO)c1` gave a pIC50 of 5.86.
In the case of `Cc1[nH]c2ccccc2c1C(=O)CSc1nn(-c2ccccc2)c(=S)s1`, the pIC50 was 6.15.
`Cc1ccccc1C1CCN(C2CCC(NC(=O)/C=C/c3c[nH]c4ccccc34)CC2)CC1` (configuration not stated) showed a pIC50 of 6.09.
For `O=C(/C=C/c1ccc(Cl)cc1)NCCCCCN1CCC(C(=O)Nc2cccc(Cl)c2)CC1`, the pIC50 was 6.07.
In the case of `O=C(Nc1ccc(I)cc1)Nc1ccc(Cn2ncc(N3CCCNCC3)c(Cl)c2=O)cc1`, the pIC50 was 5.95.
`Cc1cccc2[nH]c(-c3ccc(-c4ccc(CN5CCN(CC6CCCN(C)C6)CC5)cc4)cc3)nc12` (configuration not stated) showed a pIC50 of 6.85.
`O[C@H]1[C@H](OCc2ccc(-c3ccccc3)cc2)CC[C@@H]1N1CCCCC1` was tested, and the pIC50 was 5.97.
For `NC1CCN(Cc2ccc(-c3ccc(-c4nc5ccccc5[nH]4)s3)cc2)C1` (configuration not stated), the pIC50 was 6.13.
Compound `O=C(Nc1cccc(-c2ccc(NCCCN3CCCC3)nc2)c1)c1ccccc1` has a pIC50 of 6.06.
For `COc1ccc(CN(C)CCCc2ccc(NC(=O)Cc3ccc4nc(-c5ccccc5)ccc4c3)cc2)cc1OC`, the pIC50 was 6.28.
For `N#Cc1ccc(N(CCOc2ccc(Cl)c(F)c2)Cc2ccccc2C(F)(F)F)cc1C(F)(F)F`, the pIC50 was 6.17.
`FC(F)(F)c1ccc(CNC2CCN(CC3CCCCC3)CC2)cc1` was tested, and the pIC50 was 6.03.
`CC1(C)CC(NC(=O)NC2CCN(Cc3ccccc3)CC2)CC(C)(CNC(=O)NC2CCN(Cc3ccccc3)CC2)C1` (configuration not stated) showed a pIC50 of 6.02.
With `Oc1ccc(C=NNC(=S)Nc2cccc3ccccc23)c(O)c1` the pIC50 was 5.98.
`Cc1ccccc1CNc1noc(-c2sccc2Br)n1` gave a pIC50 of 6.42.
With `CCCC1(NC[C@@H](O)[C@H](Cc2ccccc2)NC(=O)c2cc(NCC)cc(N3CCCCS3(=O)=O)c2)CC1` the pIC50 was 5.97.
In the case of `CC(C)NCc1ccc(-c2cccc(NC(=O)c3cccc(C#N)c3)c2)cc1`, the pIC50 was 6.39.
With `CC(C)(C)c1ccc(C(=O)Nc2ccc3nc4c(c(N)c3c2)CCCC4)cc1` the pIC50 was 6.77.
With `CCCCCN1CCCC1CNS(=O)(=O)c1ccc(C(=O)Nc2ccc(C(F)(F)F)cc2)cc1` (configuration not stated) the pIC50 was 6.08.
`COc1ccc(CN(C)CCOc2ccc(NC(=O)c3cccc4c(=O)c5cc(SC)ccc5[nH]c34)cc2)cc1OC` gave a pIC50 of 6.06.
In the case of `COc1c(C2CCN(CCCCNC(=O)c3ccc(-c4ccc(Cl)cc4)cn3)CC2)ccc2c1CCCC2`, the pIC50 was 6.04.
`O=C(N[C@H]1CCN(Cc2ccc(OCCN3CCNCC3)c3ccccc23)C1)c1ccc(Cl)c(Cl)c1` gave a pIC50 of 6.12.
`Cc1ccc(NC(=O)NC2CCN(c3ccnc4cc(Cl)ccc34)C2)cc1` (configuration not stated) showed a pIC50 of 6.82.
With `COc1cc2nc(N3CCN(c4nc(N)c5cc(OC)c(OC)cc5n4)CC3)nc(N)c2cc1OC` the pIC50 was 6.82.
`COc1ccccc1C(=O)N1CCN(Cc2cccs2)CC1` was tested, and the pIC50 was 6.06.
With `CC1=C(C(=O)NC2CCC(CN3CCC(c4c[nH]c5ccccc45)CC3)CC2)Cc2ccccc21` (configuration not stated) the pIC50 was 6.08 and 6.00.
Compound `Cc1cc(-c2ccc(NC(=O)N3CCc4cc(Br)c(N5CCN(C)CC5)cc43)cc2)cc(C)n1` has a pIC50 of 6.00.
`O=C(NCCCCN1CCC[C@@H]2c3cccc(O)c3CC[C@@H]21)c1ccc(-c2ccccc2)cc1` was tested, and the pIC50 was 5.93.
`COc1ccc(Nc2nc(NN=Cc3cc(Br)c(O)cc3O)nc(Nc3ccc([N+](=O)[O-])cc3)n2)cc1` was tested, and the pIC50 was 6.05.
`CC(C)(c1ccccc1)c1ccc(O)c(CN2CCOCC2)c1` gave a pIC50 of 6.01.
In the case of `O=C(/C=C/c1ccc(Cl)c(Cl)c1)N1CCC(CN2CCC(Cc3nc4ccccc4[nH]3)CC2)CC1`, the pIC50 was 6.60.
Compound `c1cc(-c2ccc(CN3CCCC3)cc2)cc(-c2nc3ccccc3[nH]2)c1` has a pIC50 of 6.16.
With `CC(C)(C)c1ccc(CN2CCC(NC(=O)c3ccc(-c4ccccc4Cl)s3)CC2)cc1` the pIC50 was 5.87.
In the case of `Cc1noc(C)c1-c1cccc(CNCc2ccc(-c3ccc(-c4nc5ccccc5[nH]4)s3)cc2)c1`, the pIC50 was 6.25.
With `N#Cc1ccc(CN2CCC(Oc3ccc(NC(=O)c4cccs4)cc3Cl)C2)cc1` (configuration not stated) the pIC50 was 6.40.
In the case of `CC[C@H]1CN2CC[C@H]1C[C@H]2[C@H](O)c1cc(-c2ccc(C)cc2)nc2ccc(OC)cc12`, the pIC50 was 6.96.
`NC(=O)N1CCN(Cc2ccc(Br)cc2)CC1` was tested, and the pIC50 was 6.21.
For `Clc1ccc2nc(-c3cccnc3)[nH]c2c1`, the pIC50 was 7.40.
With `CCn1ccc2c3c(N)nc(N)nc3ccc21` the pIC50 was 6.51.
Work on `CN(C)Cc1c(O)ccc2[nH]c(-c3cccc(F)c3)nc12` yielded a pIC50 of 6.00.
With `Cc1[nH]c(C)c(-c2ccc(-c3ccccc3Cl)nc2)c(=O)c1Br` the pIC50 was 6.77.
With `O=C1C2=C(Nc3ccccc3SC2c2ccccc2)c2ccccc21` (configuration not stated) the pIC50 was 6.48.
Work on `COc1ccc(C(=O)Nc2ccc3oc(-c4ccc(C(F)(F)F)cc4)cc3c2)cc1CCCN(C)C` yielded a pIC50 of 6.15.
`COC(=O)c1cccc(CNCc2ccc(-c3ccc(-c4nc5ccccc5[nH]4)s3)cc2)c1` showed a pIC50 of 6.54.
For `O=C(/C=C/c1ccc(Cl)c(Cl)c1)NCCCCCN1CCC(NC(=S)Nc2ccc(F)cc2F)CC1`, the pIC50 was 6.09.
`CN1CCN(c2ccnc3cc4c(cc23)N(C(=O)Nc2ccc(-c3ccncc3)c3ccccc23)CC4)CC1` showed a pIC50 of 6.02.
`COc1cc(NCCCCNc2ccc(Cl)c(Cl)c2)nc2ccccc12` was tested, and the pIC50 was 6.28.
`O=C(Nc1ccc(Cn2ncc(N3CCCNCC3)c(Cl)c2=O)cc1)Nc1ccc(-c2ccccc2)cc1` was tested, and the pIC50 was 6.09 and 6.10.
For `Cc1cc(N[C@@H](Cc2ccccc2)C(=O)Nc2ccccc2)nc(NCCc2ccccc2)n1`, the pIC50 was 6.06.

From PubChem BioAssay AID2305 (GlaxoSmithKline (GSK), 2010)
